# Molecular target: T1, hGLP-1R (Homo sapiens, UniProt P43220)
# T1 construct: expressed in transfected cells; host or cells: CHO-K1
# Test: Measurement of activity of GLP-1R agonist (cell-based luciferase assay), CHO-K1/hGLP-1R/CRE-luciferase cell line
# Conditions: GLP-1R activity; CHO-K1/hGLP-1R/CRE-luciferase cells, 9 concentrations, four hours of incubation, Bright-Glo luminescence
# Procedure: 15,000 cells of a CHO-K1/hGLP-1R/CRE-luciferase cell line were seeded in a 96-well plate. A medium used herein was Ham’s F-12 Nutrient medium. The cells were incubated for 18 hours in a 5% CO2 incubator which was maintained at 37° C., and then treated with drugs. Each drug dispensed at 9 different concentrations was dissolved in a DMEM/F-12 + 1% FBS medium, and the cell line was treated with each of 100 µl thereof. After four hours of incubation, a Bright-Glo® luciferase assay system kit was used to add 30 µl of an assay reagent per well. A plate was stored at room temperature for 15 minutes, and then luminescence was measured using a SpectraMax M5 reader.
# T1 sequence (P43220 24-463): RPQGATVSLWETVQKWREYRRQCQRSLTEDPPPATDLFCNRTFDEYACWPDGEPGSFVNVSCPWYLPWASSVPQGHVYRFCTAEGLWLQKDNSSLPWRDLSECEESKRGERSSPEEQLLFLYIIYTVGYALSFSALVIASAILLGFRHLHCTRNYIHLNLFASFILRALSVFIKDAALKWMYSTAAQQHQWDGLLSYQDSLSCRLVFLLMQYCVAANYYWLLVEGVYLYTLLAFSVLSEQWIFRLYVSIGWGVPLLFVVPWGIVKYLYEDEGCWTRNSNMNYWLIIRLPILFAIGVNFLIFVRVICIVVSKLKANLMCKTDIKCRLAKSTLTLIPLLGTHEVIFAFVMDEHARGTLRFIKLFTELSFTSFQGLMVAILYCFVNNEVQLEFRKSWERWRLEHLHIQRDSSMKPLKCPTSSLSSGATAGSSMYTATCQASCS
row,SMILES,EC50 [nM]
1,"O=C(O)c1ccc2nc(Cc3ccc(-c4cccc(OCc5ccc(Cl)cc5F)n4)cc3)n(CC3CCCO3)c2c1 (stereo not drawn) [Example 1, 2-(4-(6-((4-chloro-2-fluorobenzyl)oxy)pyridin-2-yl)benzyl)-1-((tetrahydrofuran-2-yl)methyl)-1H-benzo[d]imidazole-6-carboxylic acid]",0.205
2,"O=C(O)c1ccc2nc(Cc3ccc(-c4cccc(OCc5ccc(Cl)cc5F)n4)cc3)n(C[C@@H]3CCO3)c2c1 [Example 2, (S)-2-(4-(6-((4-chloro-2-fluorobenzyl)oxy)pyridin-2-yl)benzyl)-1-(oxetan-2-ylmethyl)-1H-benzo[d]imidazole-6-carboxylic acid]",0.007
3,"CCn1cncc1Cn1c(Cc2ccc(-c3cccc(OCc4ccc(C#N)cc4F)n3)cc2)nc2ccc(C(=O)O)cc21 [Example 4, 2-(4-(6-((4-cyano-2-fluorobenzyl)oxy)pyridin-2-yl)benzyl)-1-((1-ethyl-1H-imidazol-5-yl)methyl)-1H-benzo[d]imidazole-6-carboxylic acid]",0.015
4,"N#Cc1ccc(COc2cccc(-c3ccc(Oc4nc5ccc(C(=O)O)cc5n4C[C@@H]4CCO4)cc3)n2)c(F)c1 [Example 6, (S)-2-(4-(6-((4-cyano-2-fluorobenzyl)oxy)pyridin-2-yl)phenoxy)-1-(oxetan-2-ylmethyl)-1H-benzo[d]imidazole-6-carboxylic acid]",21
5,"O=C(O)c1ccc2nc(Oc3ccc(-c4cccc(OCc5ccc(Cl)cc5F)n4)cc3)n(C[C@@H]3CCO3)c2c1 [Example 7, (S)-2-(4-(6-((4-chloro-2-fluorobenzyl)oxy)pyridin-2-yl)phenoxy)-1-(oxetan-2-ylmethyl)-1H-benzo[d]imidazole-6-carboxylic acid]",0.066
6,"N#Cc1ccc(COc2cccc(-c3ccc(Oc4nc5ccc(C(=O)O)cc5n4Cc4cnco4)cc3)n2)c(F)c1 [Example 9, 2-(4-(6-((4-cyano-2-fluorobenzyl)oxy)pyridin-2-yl)phenoxy)-1-(oxazol-5-ylmethyl)-1H-benzo[d]imidazole-6-carboxylic acid]",0.7
7,"O=C(O)c1ccc2nc(Cc3ccc(-c4cccc(OCc5ccc(Cl)cc5F)n4)cc3)n(C[C@@H]3CCCO3)c2c1 [Example 12, (S)-2-(4-(6-((4-chloro-2-fluorobenzyl)oxy)pyridin-2-yl)benzyl)-1-((tetrahydrofuran-2-yl)methyl)-1H-benzo[d]imidazole-6-carboxylic acid]",0.0706
8,"O=C(O)c1ccc2nc(Cc3ccc(-c4cccc(OCc5ccc(Cl)cc5F)n4)cc3)n(CC3CCCCO3)c2c1 (stereo not drawn) [Example 14, 2-(4-(6-((4-chloro-2-fluorobenzyl)oxy)pyridin-2-yl)benzyl)-1-((tetrahydro-2H-pyran-2-yl)methyl)-1H-benzo[d]imidazole-6-carboxylic acid]",> 80
9,"O=C(O)c1ccc2nc(Cc3ccc(-c4cccc(OCc5ccc(Cl)cc5F)n4)c(F)c3)n(C[C@@H]3CCO3)c2c1 [Example 15, (S)-2-(4-(6-((4-chloro-2-fluorobenzyl)oxy)pyridin-2-yl)-3-fluorobenzyl)-1-(oxetan-2-ylmethyl)-1H-benzo[d]imidazole-6-carboxylic acid]",0.0035
10,"O=C(O)c1ccc2nc(Oc3ccc(-c4cccc(OCc5ccc(Cl)cc5F)n4)cc3F)n(C[C@@H]3CCO3)c2c1 [Example 17, (S)-2-(4-(6-((4-chloro-2-fluorobenzyl)oxy)pyridin-2-yl)-2-fluorophenoxy)-1-(oxetan-2-ylmethyl)-1H-benzo[d]imidazole-6-carboxylic acid]",0.357
11,"O=C(O)c1ccc2nc(Oc3c(F)cc(-c4cccc(OCc5ccc(Cl)cc5F)n4)cc3F)n(C[C@@H]3CCO3)c2c1 [Example 19, (S)-2-(4-(6-((4-chloro-2-fluorobenzyl)oxy)pyridin-2-yl)-2,6-difluorophenoxy)-1-(oxetan-2-ylmethyl)-1H-benzo[d]imidazole-6-carboxylic acid]",1.33
12,"O=C(O)c1ccc2nc(Cc3ccc(-c4cccc(OCc5ccc(C(F)(F)F)cc5F)n4)cc3)n(Cc3cnco3)c2c1 [Example 21, 2-(4-(6-((2-fluoro-4-(trifluoromethyl)benzyl)oxy)pyridin-2-yl)benzyl)-1-(oxazol-5-ylmethyl)-1H-benzo[d]imidazole-6-carboxylic acid]",0.317
13,"O=C(O)c1ccc2nc(Cc3ccc(-c4cccc(OCc5ccc(Cl)cc5F)n4)c(Cl)c3)n(Cc3cnco3)c2c1 [Example 22, 2-(3-chloro-4-(6-((4-chloro-2-fluorobenzyl)oxy)pyridin-2-yl)benzyl)-1-(oxazol-5-ylmethyl)-1H-benzo[d]imidazole-6-carboxylic acid]",0.635
14,"O=C(O)c1ccc2nc(Cc3ccc(-c4cccc(OCc5ccc(Cl)cc5F)n4)c(F)c3)n(Cc3cnco3)c2c1 [Example 23, 2-(4-(6-((4-chloro-2-fluorobenzyl)oxy)pyridin-2-yl)-3-fluorobenzyl)-1-(oxazol-5-ylmethyl)-1H-benzo[d]imidazole-6-carboxylic acid]",0.061
15,"O=C(O)c1ccc2nc(Oc3ccc(-c4cccc(OCc5ccc(Cl)cc5F)n4)cc3)n(CC3CCCO3)c2c1 (stereo not drawn) [Example 28, 2-(4-(6-((4-chloro-2-fluorobenzyl)oxy)pyridin-2-yl)phenoxy)-1-((tetrahydrofuran-2-yl)methyl)-1H-benzo[d]imidazole-6-carboxylic acid]",1.12
16,"O=C(O)c1ccc2nc(Cc3ccc(-c4cccc(OCc5ccc(C(F)(F)F)cc5F)n4)cc3)n(C[C@@H]3CCCO3)c2c1 [Example 29, (S)-2-(4-(6-((2-fluoro-4-(trifluoromethyl)benzyl)oxy)pyridin-2-yl)benzyl)-1-((tetrahydrofuran-2-yl)methyl)-1H-benzo[d]imidazole-6-carboxylic acid]",0.208
17,"O=C(O)c1ccc2nc(Cc3ccc(-c4cccc(OCc5ccc(Cl)cc5F)n4)cc3F)n(C[C@@H]3CCCO3)c2c1 [Example 30, (S)-2-(4-(6-((4-chloro-2-fluorobenzyl)oxy)pyridin-2-yl)-2-fluorobenzyl)-1-((tetrahydrofuran-2-yl)methyl)-1H-benzo[d]imidazole-6-carboxylic acid]",0.0327

# The next lines start with the values.
row,EC50 [nM],SMILES
1,0.016,"CCn1cncc1Cn1c(Oc2ccc(-c3cccc(OCc4ccc(C#N)cc4F)n3)cc2)nc2ccc(C(=O)O)cc21 [Example 5, 2-(4-(6-((4-cyano-2-fluorobenzyl)oxy)pyridin-2-yl)phenoxy)-1-((1-ethyl-1H-imidazol-5-yl)methyl)-1H-benzo[d]imidazole-6-carboxylic acid]"
2,0.0746,"O=C(O)c1ccc2nc(Cc3ccc(-c4cccc(OCc5ccc(Cl)cc5F)n4)cc3F)n(Cc3cnco3)c2c1 [Example 11, 2-(4-(6-((4-chloro-2-fluorobenzyl)oxy)pyridin-2-yl)-2-fluorobenzyl)-1-(oxazol-5-ylmethyl)-1H-benzo[d]imidazole-6-carboxylic acid]"
3,2.02,"O=C(O)c1ccc2nc(Cc3ccc(-c4cccc(OCc5ccc(Cl)cc5F)n4)cc3)n(C[C@H]3CCCO3)c2c1 [Example 13, (R)-2-(4-(6-((4-chloro-2-fluorobenzyl)oxy)pyridin-2-yl)benzyl)-1-((tetrahydrofuran-2-yl)methyl)-1H-benzo[d]imidazole-6-carboxylic acid]"
4,> 80,"O=C(O)c1ccc2nc(Cc3ccc(-c4cccc(OCc5ccc(C(F)(F)F)cc5F)n4)cc3)n(C[C@@H]3CCO3)c2c1 [Example 16, (S)-2-(4-(6-((2-fluoro-4-(trifluoromethyl)benzyl)oxy)pyridin-2-yl)benzyl)-1-(oxetan-2-ylmethyl)-1H-benzo[d]imidazole-6-carboxylic acid]"
5,0.438,"O=C(O)c1ccc2nc(Oc3ccc(-c4cccc(OCc5ccc(Cl)cc5F)n4)cc3Cl)n(C[C@@H]3CCO3)c2c1 [Example 18, (S)-2-(2-chloro-4-(6-((4-chloro-2-fluorobenzyl)oxy)pyridin-2-yl)phenoxy)-1-(oxetan-2-ylmethyl)-1H-benzo[d]imidazol-6-carboxylic acid]"
6,0.121,"O=C(O)c1ccc2nc(Oc3ccc(-c4cccc(OCc5ccc(Cl)cc5F)n4)c(F)c3)n(C[C@@H]3CCO3)c2c1 [Example 20, (S)-2-(4-(6-((4-chloro-2-fluorobenzyl)oxy)pyridin-2-yl)-3-fluorophenoxy)-1-(oxetan-2-ylmethyl)-1H-benzo[d]imidazole-6-carboxylic acid]"
7,0.167,"CCCn1cnnc1Cn1c(Cc2ccc(-c3cccc(OCc4ccc(Cl)cc4F)n3)cc2)nc2ccc(C(=O)O)cc21 [Example 24, 2-(4-(6-((4-chloro-2-fluorobenzyl)oxy)pyridin-2-yl)benzyl)-1-((4-propyl-4H-1,2,4-triazol-3-yl)methyl)-1H-benzo[d]imidazole-6-carboxylic acid]"
8,0.402,"CCCn1cnnc1Cn1c(Cc2ccc(-c3cccc(OCc4ccc(C(F)(F)F)cc4F)n3)cc2)nc2ccc(C(=O)O)cc21 [Example 25, 2-(4-(6-((2-fluoro-4-(trifluoromethyl)benzyl)oxy)pyridin-2-yl)benzyl)-1-((4-propyl-4H-1,2,4-triazol-3-yl)methyl)-1H-benzo[d]imidazole-6-carboxylic acid]"
9,0.775,"CCCn1cnnc1Cn1c(Cc2ccc(-c3cccc(OCc4ccc(Cl)cc4F)n3)c(Cl)c2)nc2ccc(C(=O)O)cc21 [Example 26, 2-(3-chloro-4-(6-((4-chloro-2-fluorobenzyl)oxy)pyridin-2-yl)benzyl)-1-((4-propyl-4H-1,2,4-triazol-3-yl)methyl)-1H-benzo[d]imidazole-6-carboxylic acid]"
10,0.13,"CCCn1cnnc1Cn1c(Cc2ccc(-c3cccc(OCc4ccc(Cl)cc4F)n3)c(F)c2)nc2ccc(C(=O)O)cc21 [Example 27, 2-(4-(6-((4-chloro-2-fluorobenzyl)oxy)pyridin-2-yl)-3-fluorobenzyl)-1-((4-propyl-4H-1,2,4-triazol-3-yl)methyl)-1H-benzo[d]imidazole-6-carboxylic acid]"
